Among the data in publication PMC6298923, “P2Y2 and P2Y6 receptor activation elicits intracellular calcium responses in human adipose-derived mesenchymal stromal cells” (Purinergic Signalling, 2018) are EC50 and IC50 values, retold here.

Structures are written as SMILES.

One test concerns the target T1, P2Y2 receptor (Homo sapiens, UniProt P41231).
T1 construct: gene P2RY2; native endogenous receptor in primary human adipose-derived mesenchymal stromal cells (female donors)
Briefly: Fura-2 intracellular calcium, FlexStation, native AD-MSCs. It counts as cell-based. As to conditions: agonist; peak calcium response; […] °C, pH […] extracellular Ca2+; receptor assigned by antagonist. The text has this: Fura-2 intracellular calcium, FlexStation, native AD-MSCs on P2Y2 receptor
In general terms: Calcium flux is commonly read through the fluorescence of an indicator in the cells.

Another test addresses T2, P2Y6 receptor (Homo sapiens, UniProt Q15077).
T2 construct: gene P2RY6
The note with it: antagonist against […] ADP; peak magnitude; cells do not respond to UDP up to […]; […] °C, pH […].

T1 sequence (P41231 whole entry): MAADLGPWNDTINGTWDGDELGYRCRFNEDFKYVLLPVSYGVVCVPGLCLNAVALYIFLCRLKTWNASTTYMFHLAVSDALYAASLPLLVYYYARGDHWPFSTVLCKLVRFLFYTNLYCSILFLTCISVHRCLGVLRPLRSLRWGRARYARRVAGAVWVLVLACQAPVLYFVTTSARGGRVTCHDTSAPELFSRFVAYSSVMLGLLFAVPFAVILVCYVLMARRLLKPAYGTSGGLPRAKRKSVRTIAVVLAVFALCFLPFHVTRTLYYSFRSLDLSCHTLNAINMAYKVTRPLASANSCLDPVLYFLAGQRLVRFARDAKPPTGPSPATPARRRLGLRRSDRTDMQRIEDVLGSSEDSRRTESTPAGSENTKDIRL
T2 sequence (Q15077 whole entry): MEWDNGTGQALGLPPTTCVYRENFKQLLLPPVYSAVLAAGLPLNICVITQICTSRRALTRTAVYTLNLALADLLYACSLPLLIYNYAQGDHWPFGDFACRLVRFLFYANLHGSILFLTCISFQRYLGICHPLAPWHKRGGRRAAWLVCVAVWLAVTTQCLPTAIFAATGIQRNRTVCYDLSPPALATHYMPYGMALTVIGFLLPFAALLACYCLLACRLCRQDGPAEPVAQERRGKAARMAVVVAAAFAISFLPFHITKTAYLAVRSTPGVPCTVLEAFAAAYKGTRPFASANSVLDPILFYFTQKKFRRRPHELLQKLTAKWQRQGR

Regarding `O=c1ccn([C@@H]2O[C@H](COP(=O)(O)OP(=O)(O)OP(=O)(O)O)[C@@H](O)[C@H]2O)c(=O)[nH]1` [UTP], the EC50 on P2Y2 receptor was found to be 3240 ± 2800 nM.
On the same count and under the same terms, to `Nc1ncnc2c1ncn2[C@@H]1O[C@H](COP(=O)(O)OP(=O)(O)OP(=O)(O)O)[C@@H](O)[C@H]1O` [ATP] belongs 2240 ± 1100 nM.
On to `S=C=Nc1cccc(NC(=S)NCCCCNC(=S)Nc2cccc(N=C=S)c2)c1` [MRS2578], for which, on P2Y6 receptor, the IC50 came out at 437 ± 133 nM.

What is called EC50 is the concentration giving half of the maximal effect. For orientation: IC50 means the concentration that inhibits the measured activity by half.
